Measurements from US11787805B2, “N-oxide inhibitors of NLRP3 inflammasome” (BioAge Labs, Inc., priority 2022, dated 2023).

Assay: Human Liver Microsome Stability Assay (HLM)
Type: in vitro ADME
Conditions: for half-life: human, liver microsomes, read-out: HLM t1/2
Source text: The stability of the N-oxide compounds provided herein was studied compared to analogs not having N-oxide. […] This enhanced metabolic stability corresponds to an extended half-life and duration of action when dosed in vivo.

Row | Structure (SMILES) | HLM t1/2 (human liver microsomes) | half-life
1 | CCOc1cc(C(=O)N(C)Cc2cncc3cn[nH]c23)ccc1-c1cccc(F)c1 [A] | 3.7 min | 
2 | CCOc1cc(C(=O)N(C)Cc2cncc3cn[nH]c23)ccc1-c1cccc(F)c1 [B] |  | 2 min
3 | CN(Cc1cncc2cn[nH]c12)C(=O)c1ccc(-c2cccc(F)c2)c(OC2CC2)c1 [C] |  | 4 min
4 | CCOc1cc(C(=O)N(C)Cc2c[n+]([O-])cc3cn[nH]c23)ccc1-c1cccc(F)c1 [Compound 001] |  | > 145 min
5 | CN(Cc1c[n+]([O-])cc2cn[nH]c12)C(=O)c1ccc(-c2cccc(F)c2)c(OC2CC2)c1 [Compound 004] |  | > 145 min
6 | CN(Cc1cccc2cn[nH]c12)C(=O)c1ccc(-c2cccc(F)c2)c(OC2CC2)c1 [D] |  | 1.5 min
